Results from the supplement of paper PMC6461962.
Where a name gives a salt, the structure may show the parent alone.

Legend:
[1] = test system: Rhodanobacter sp. FW104-10B01
Method in brief: (§1)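 Washed cells (final OD600 0.02, 80 µL) were added to 384-well plates of serially diluted inorganic ion salts or equimolar nitrilotriacetic acid complexes. Aerobic plates were shaken at 700 rpm at 30 °C, and anaerobic plates were left unshaken. OD600 was read at 24 h (48 h for R2A strain comparisons) and scaled between water and growth-blocking antibiotic controls, dropping wells with precipitate. IC50 came from drc R package fits of at least two biological replicate curves.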

[2] = test system: Pseudomonas fluorescens FW300-N2E2
Method in brief: as §1

[3] = medium / electron acceptor: 10B01 R2A/aerobic
[4] = medium / electron acceptor: 10B01 R2A/nitrate
[5] = medium / electron acceptor: N2E2 Glucose/aerobic
[6] = medium / electron acceptor: N2E2 Glucose/aerobic 0.25xMinerals
[7] = medium / electron acceptor: N2E2 Glucose/aerobic (2)
[8] = medium / electron acceptor: N2E2 KB/aerobic
[9] = medium / electron acceptor: N2E2 LB/aerobic
[10] = medium / electron acceptor: N2E2 LB/aerobic (2)
[11] = medium / electron acceptor: N2E2 LB/nitrate
[12] = medium / electron acceptor: N2E2 Lactate/aerobic
[13] = medium / electron acceptor: N2E2 R2A/aerobic

| Compound | IC50 growth inhibition [1, 3] [mM] | IC50 growth inhibition [1, 4] [mM] | IC50 growth inhibition [2, 5] [mM] | IC50 growth inhibition [2, 6] [mM] | IC50 growth inhibition [2, 7] [mM] | IC50 growth inhibition [2, 8] [mM] | IC50 growth inhibition [2, 9] [mM] | IC50 growth inhibition [2, 10] [mM] | IC50 growth inhibition [2, 11] [mM] | IC50 growth inhibition [2, 12] [mM] | IC50 growth inhibition [2, 13] [mM] |
| --- | --- | --- | --- | --- | --- | --- | --- | --- | --- | --- | --- |
| NO [Hydroxylamine hydrochloride] | 31.9 | > 500 | < 0.244 | < 0.244 | < 0.244 | < 0.244 | < 0.244 | < 0.244 | 0.694 | < 0.244 | < 0.244 |
| O.[Cl-].[Li+] [Lithium chloride hydrate] | 15.6 | 98.7 | 349 | > 500 | 33.9 | 325 | 354 | 354 | 263 | 321 | 176 |
| O.O.O.O.O.O.[Cl-].[Cl-].[Mg+2] [Magnesium chloride hexahydrate] | 218 | 141 | 276 | 431 | 366 | 354 | 354 | 360 | 321 | 354 | 268 |
| O.O.O.O.[Cl][Mn][Cl] [Manganese (II) chloride tetrahydrate] | > 5 | > 5 | > 5 | > 5 | 1.57 | > 5 | 3.79 | 3.91 | > 5 | > 5 | 1.45 |
| O.O.O.O.O.O.[Cl][Ni][Cl] [Nickel (II) chloride hexahydrate] | 1.03 | 1.82 | 0.0112 | 0.00556 | 0.0143 | 3.92 | 3.59 | > 5 | > 5 | 0.0276 | 0.221 |
| O=C(O)CN(CC(=O)O)CC(=O)O [Nitrilotriacetic acid] | > 250 | > 250 | 0.345 | 21.4 | 6.51 | 15.3 | 54.7 | 111 | 6.75 | < 0.122 | 9.21 |
| [Cl][Pd][Cl] [Palladium(II) chloride] | > 5 | > 5 | < 0.00244 | < 0.00244 | < 0.00244 | 3.73 | > 5 | 3.78 | > 5 | < 0.00244 | 0.249 |
| [Cl-].[K+] [Potassium Chloride] | > 500 | 381 | > 500 | > 500 | > 500 | > 500 | > 500 | > 500 | 458 | > 500 | > 500 |
| [K+].[K+].[O]=[Cr](=[O])([O-])[O-] [Potassium chromate] | 0.123 | < 0.244 | < 0.244 | < 0.244 | < 0.244 | < 0.244 | < 0.244 | < 0.244 | 31 | < 0.244 | 0.0094 |
| O.O=[Te]([O-])[O-].[K+].[K+] [Potassium tellurite hydrate] | 0.01 | 0.01 | < 0.00244 | < 0.00244 | < 0.00244 | < 0.00244 | < 0.00244 | < 0.00244 | 0.01 | < 0.00244 | < 0.00244 |
| [O-][Cl+2]([O-])O [Sodium Chlorate] | 355 | < 0.244 | 9.21 | 8.75 | 0.387 | 5.02 | 24.5 | 54.4 | 4.33 | 15.7 | 45.9 |
| [Cl-].[Na+] [Sodium Chloride] | 708 | 545 | 699 | 708 | 603 | 660 | 708 | 718 | 622 | 707 | 671 |
| [O-][Cl+]O [Sodium Chlorite] | > 5 | > 5 | < 0.00244 | < 0.00244 | < 0.00244 | < 0.00244 | 0.0105 | < 0.00244 | 0.00287 | < 0.00244 | 0.00662 |
| O.O.O.O.O.O.O.O=[As]([O-])([O-])O.[Na+].[Na+] [Sodium arsenate dibasic heptahydrate] | > 500 | > 500 | < 0.244 | < 0.244 | < 0.244 | < 0.244 | < 0.244 | < 0.244 | 5.13 | < 0.244 | 0.874 |
| OCl [Sodium hypochlorite] | > 5 | > 5 | > 5 | > 5 | 2.28 | > 5 | > 5 | > 5 | 0.534 | > 5 | 3.32 |
| O=P[O-].[Na+] [Sodium hypophosphite monohydrate] | 354 | 171 | 354 | 451 | 146 | 380 | 354 | > 500 | 306 | 354 | > 500 |
